Measurements taken from ChEMBL document CHEMBL5608141, “Identification of compartment-specific drug sensitivities in CRC organoid-stroma co-cultures” (2024).

Legend:
Assay type in all cases: functional, Homo sapiens
Design in all cases: dose or concentration left out as unconfirmed
Colon cancer organoid [1] = experiment: Identification of compartment-specific drug sensitivities in O20 CRC organoid-stroma F20 CAF co-cultures. Organoid is transduced with Lucferase2-P2A-EGFP lentivirus, fibroblast with Renilla-dsRed lentivirus. Dual-Glo Luciferase assay is used to report viability data.
Colon cancer organoid [2] = experiment: Identification of compartment-specific drug sensitivities in O14 CRC organoid-stroma F14 CAF co-cultures. Organoid is transduced with Lucferase2-P2A-EGFP lentivirus, fibroblast with Renilla-dsRed lentivirus. Dual-Glo Luciferase assay is used to report viability data.
Colon cancer organoid [3] = experiment: Identification of compartment-specific drug sensitivities in O06 CRC organoid-stroma F06 CAF co-cultures. Organoid is transduced with Lucferase2-P2A-EGFP lentivirus, fibroblast with Renilla-dsRed lentivirus. Dual-Glo Luciferase assay is used to report viability data.
[4] = Transduced with Lucferase2-P2A-EGFP lentivirus
[5] = Transduced with Renilla-dsRed lentivirus

Compound | Cell Viability (Colon cancer organoid [1]; [4]) [%] | Cell Viability (Colon cancer organoid [1]; [5]) [%] | Cell Viability (Colon cancer organoid [2]; [4]) [%] | Cell Viability (Colon cancer organoid [2]; [5]) [%] | Cell Viability (Colon cancer organoid [3]; [4]) [%] | Cell Viability (Colon cancer organoid [3]; [5]) [%]
CCc1cc(Nc2nccc(-c3c(-c4ccc(OC)c(C(=O)Nc5c(F)cccc5F)c4)nc4ccccn34)n2)c(OC)cc1N1CCC(N2CCN(S(C)(=O)=O)CC2)CC1 | 117.027 | 82.2783 | 103.898 | 108.534 | 86.7992 | 78.7013
C[C@@]1(Cc2ccc(C#N)cc2)C(=O)N(c2cc(Cl)cc(Cl)c2)c2ncc(C(=O)NC3(c4nc(C5CCC5)no4)CC3)n21 [BI 9446] | 72.3076 | 136.535 | 102.867 | 111.855 | 82.5213 | 98.3986
Nc1nc(NCc2ccccc2)nc(-c2ccccc2CO)n1 [Ogerin] | 81.1547 | 98.0569 | 107.532 | 92.7829 | 100.001 | 107.856
CNCCN1CCC(OCc2ccccc2)CC1 | 15.2261 | 211.667 | 40.9856 | 114.707 | 118.085 | 144.179
CN(C)CCOc1ccc(-c2nc(-c3ccncc3)c(-c3ccc4c(c3)CC/C4=N\O)[nH]2)cc1 [SB590885] | 154.959 | 68.1541 | 183.636 | 84.6732 | 79.2379 | 96.48
CCN(Cc1ccc(Cl)cc1)c1ncc(C(=O)NCCCN2CCCC2=O)c(NC2CCCC2)n1 | 67.2116 | 104.655 | 127.363 | 88.0275 | 93.3549 | 154.26
C=CC(=O)Nc1ccc2[nH]c(=O)n(C3CCN(Cc4ccc(-c5ccc6c(c5)NC(=O)CO6)cc4)CC3)c2c1 [RL2578] | 101.642 | 98.7435 | 83.2796 | 87.8699 | 88.4189 | 104.707
Cc1c(Oc2ccc(F)cc2)c(OC(C)C)nn1-c1ccc(C2CC2)cn1 [IPP/CNRS-A019] | 91.0165 | 118.396 | 67.4569 | 79.6967 | 92.46 | 90.9232
CN([C@@H]1CCc2c(CC(=O)O)c3ccccc3n2C1)S(=O)(=O)c1ccc(F)cc1 [MK-7246] | 94.6909 | 109.932 | 114.74 | 112.48 | 70.9731 | 124.085
Cc1c(NC(=O)c2ccc(C(C)(C)C)cc2)cccc1-c1cn(C)c(=O)c(Nc2ccc(C(=O)N3CCOCC3)cc2)n1 | 110.349 | 88.3582 | 92.1091 | 94.7887 | 105.279 | 113.435
Cc1c(N2CCNCC2)nc2ccc(Br)cc2c1C(=O)NC[C@H](CCC(=O)O)c1ccccc1Cl [BAY-403] | 121.312 | 79.2483 | 117.744 | 98.3874 | 78.4474 | 70.4581
Cn1cc(-c2[nH]c3cc(NC(=O)[C@H](N)C4CCCCC4)cc4c3c2C=NNC4=O)cn1 | 23.2406 | 172.741 | 1.912 | 87.1489 | 9.334 | 180.436
Cc1cc(=O)n(C)c2cc(N3C(=O)CC[C@H](NS(=O)(=O)CC(C)C)[C@H]3c3ccc(Cl)cc3)ccc12 | 108.181 | 166.434 | 95.8197 | 121.413 | 117.914 | 167.751
CCOC(=O)CCNc1cc(N2CCc3ccccc3CC2)nc(-c2cccnc2)n1 | 102.371 | 131.422 | 87.4597 | 97.4259 | 130.773 | 124.082
CNC(=O)c1ccc(Nc2ncc(C(F)(F)F)c(NCc3nccnc3N(C)S(C)(=O)=O)n2)cc1 [DEFACTINIB] | 57.0475 | 79.7534 | 78.9872 | 82.2867 | 119.668 | 427.019
COc1cc(Nc2nccc(-c3cnn4nc(OC)ccc34)n2)cc(C(F)(F)F)c1 | 11.0854 | 189.711 | 7.4245 | 53.4313 | 29.547 | 143.538
CC(C)[C@H](C(=O)Nc1ccc(C(=O)NO)cc1)c1ccccc1 [AR-42] | 13.9942 | 352.85 | 24.8523 | 220.952 | 8.004 | 640.047
CCNC(=O)c1cc2c(N3CCOC[C@@H]3C)ccnc2n1C | 107.341 | 102.95 | 116.155 | 112.32 | 84.5961 | 69.3706
Cc1cn(-c2cc(NC(=O)c3ccc4c(c3)CN(c3cncnc3)C[C@@H]4C)cc(C(F)(F)F)c2)cn1 | 88.3808 | 107.854 | 141.09 | 97.6954 | 82.9908 | 122.253
CN(C)C(=O)/C(C#N)=C/c1ccc(-c2nc3cnc4c(ccn4C)c3n2C2CCCCC2)o1 | 49.7098 | 127.191 | 110.125 | 86.2886 | 28.6002 | 127.582
COCCc1ccc(-c2c(C)nc3c(N4CCOCC4)ccnn23)cn1 [JNJ-42396302] | 126.017 | 102.271 | 94.533 | 84.3411 | 121.378 | 128.188
O=C(NCCN1CCOCC1)c1ccc2c(c1)C(=O)c1ccc(Nc3ccc(F)c(NC(=O)c4ccccc4)c3)cc1CC2 [FS-694] | 66.3241 | 119.038 | 121.73 | 92.4198 | 67.8661 | 67.282
O=C(O)[C@@H]1[C@@H](Cn2nnc3ccccc3c2=O)CC[C@H]1C(=O)c1ccc(OCCC2CCOCC2)cc1 [BAY-694] | 92.0939 | 91.7477 | 127.223 | 103.773 | 99.0718 | 68.3581
CNC(=O)c1cc(C(=O)N[C@H]2[C@@H]3COC[C@@H]32)cc2c1O[C@H](CF)[C@H]2c1ccccc1 [GSK973] | 97.9061 | 135.509 | 99.5313 | 122.198 | 110.942 | 170.924
CN(C)C(=O)c1sc2nc(N3CCC(S(C)(=O)=O)CC3)cc(C(F)(F)F)c2c1N [BI-5026] | 83.1119 | 112.021 | 89.1429 | 109.835 | 108.851 | 103.89
